Results as given in paper PMC3783656 (Bioorganic & medicinal chemistry letters, 2013).
pEC50, pIC50, pKi: −log10 of the molar value. ≈ marks a conversion by molar mass, not a printed value.

How the values were obtained:
[1] = target: FLT3 (D835H) (Homo sapiens, UniProt P36888, D835H); test: KINOMEscan kinase binding; details: 10 μM; % of kinase remaining bound to bead-bound ligand
[2] = target: T1, CK1δ (Homo sapiens, UniProt P48730); test: CK1δ inhibition, Reaction Biology Corp.; assay type: biochemical; details: read-out: IC50 CK1δ; data obtained by Reaction Biology Corp.
T1 sequence (P48730 whole entry): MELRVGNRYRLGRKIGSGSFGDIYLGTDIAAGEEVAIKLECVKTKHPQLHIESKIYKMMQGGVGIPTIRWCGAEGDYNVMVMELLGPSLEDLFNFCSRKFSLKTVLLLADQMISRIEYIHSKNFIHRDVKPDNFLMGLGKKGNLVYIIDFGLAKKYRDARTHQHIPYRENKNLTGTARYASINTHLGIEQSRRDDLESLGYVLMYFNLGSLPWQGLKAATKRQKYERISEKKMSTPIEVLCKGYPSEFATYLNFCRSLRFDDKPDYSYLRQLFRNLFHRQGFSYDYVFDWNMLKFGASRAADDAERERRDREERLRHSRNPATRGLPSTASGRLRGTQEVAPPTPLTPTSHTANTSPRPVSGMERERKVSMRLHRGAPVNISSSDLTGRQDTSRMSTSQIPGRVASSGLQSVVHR

[3] = Microsome stability, mouse liver microsomes; details: mouse liver microsomes; third value of h/r/m
[4] = target: CDK7 (Homo sapiens, UniProt P50613); test: KINOMEscan kinase binding; details: 10 μM; % of kinase remaining bound to bead-bound ligand
[5] = target: RIOK3 (Homo sapiens, UniProt O14730); test: KINOMEscan kinase binding; details: 10 μM; % of kinase remaining bound to bead-bound ligand
Chain of RIOK3 (O14730 whole entry): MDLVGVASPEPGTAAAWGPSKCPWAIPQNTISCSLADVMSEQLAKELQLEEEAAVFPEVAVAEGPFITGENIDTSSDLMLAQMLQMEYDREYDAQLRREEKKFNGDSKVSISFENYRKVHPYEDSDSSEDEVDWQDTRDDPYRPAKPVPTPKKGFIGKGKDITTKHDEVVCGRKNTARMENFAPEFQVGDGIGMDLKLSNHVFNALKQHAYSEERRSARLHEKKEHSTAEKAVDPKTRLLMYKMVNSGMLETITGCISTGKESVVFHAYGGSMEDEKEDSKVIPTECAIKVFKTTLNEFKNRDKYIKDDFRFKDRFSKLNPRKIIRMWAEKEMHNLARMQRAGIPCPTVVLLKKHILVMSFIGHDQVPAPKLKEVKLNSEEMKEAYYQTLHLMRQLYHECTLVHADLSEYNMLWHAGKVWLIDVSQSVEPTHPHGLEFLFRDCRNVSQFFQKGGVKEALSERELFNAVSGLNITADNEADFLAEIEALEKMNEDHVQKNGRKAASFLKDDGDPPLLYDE

[6] = Microsome stability, human liver microsomes; details: human liver microsomes; first value of h/r/m
[7] = Microsome stability, rat liver microsomes; details: rat liver microsomes; second value of h/r/m
[8] = target: MAST1 (Homo sapiens, UniProt Q9Y2H9); test: KINOMEscan kinase binding; details: 10 μM; % of kinase remaining bound to bead-bound ligand
[9] = target: CDK4/cyclin D1 (Homo sapiens, UniProt P11802); test: KINOMEscan kinase binding; details: 10 μM; % of kinase remaining bound to bead-bound ligand
[10] = target: CSNK1E [CK1ε] (Homo sapiens, UniProt P49674); test: KINOMEscan kinase binding; details: 10 μM; % of kinase remaining bound to bead-bound ligand
[11] = Solubility in DMEM/10% FBS; assay type: physicochemical
[12] = target: FLT3 (D835Y) (Homo sapiens, UniProt P36888, D835Y); test: KINOMEscan kinase binding; details: 10 μM; % of kinase remaining bound to bead-bound ligand
[13] = target: ROCK2 (Homo sapiens, UniProt O75116); test: KINOMEscan kinase binding; details: 10 μM; % of kinase remaining bound to bead-bound ligand
[14] = tested on: FLT3 (ITD); test: KINOMEscan kinase binding; details: 10 μM; % of kinase remaining bound to bead-bound ligand
[15] = target: CDK13 (Homo sapiens, UniProt Q14004); test: KINOMEscan kinase binding; details: 10 μM; % of kinase remaining bound to bead-bound ligand
Chain of CDK13 (Q14004 whole entry): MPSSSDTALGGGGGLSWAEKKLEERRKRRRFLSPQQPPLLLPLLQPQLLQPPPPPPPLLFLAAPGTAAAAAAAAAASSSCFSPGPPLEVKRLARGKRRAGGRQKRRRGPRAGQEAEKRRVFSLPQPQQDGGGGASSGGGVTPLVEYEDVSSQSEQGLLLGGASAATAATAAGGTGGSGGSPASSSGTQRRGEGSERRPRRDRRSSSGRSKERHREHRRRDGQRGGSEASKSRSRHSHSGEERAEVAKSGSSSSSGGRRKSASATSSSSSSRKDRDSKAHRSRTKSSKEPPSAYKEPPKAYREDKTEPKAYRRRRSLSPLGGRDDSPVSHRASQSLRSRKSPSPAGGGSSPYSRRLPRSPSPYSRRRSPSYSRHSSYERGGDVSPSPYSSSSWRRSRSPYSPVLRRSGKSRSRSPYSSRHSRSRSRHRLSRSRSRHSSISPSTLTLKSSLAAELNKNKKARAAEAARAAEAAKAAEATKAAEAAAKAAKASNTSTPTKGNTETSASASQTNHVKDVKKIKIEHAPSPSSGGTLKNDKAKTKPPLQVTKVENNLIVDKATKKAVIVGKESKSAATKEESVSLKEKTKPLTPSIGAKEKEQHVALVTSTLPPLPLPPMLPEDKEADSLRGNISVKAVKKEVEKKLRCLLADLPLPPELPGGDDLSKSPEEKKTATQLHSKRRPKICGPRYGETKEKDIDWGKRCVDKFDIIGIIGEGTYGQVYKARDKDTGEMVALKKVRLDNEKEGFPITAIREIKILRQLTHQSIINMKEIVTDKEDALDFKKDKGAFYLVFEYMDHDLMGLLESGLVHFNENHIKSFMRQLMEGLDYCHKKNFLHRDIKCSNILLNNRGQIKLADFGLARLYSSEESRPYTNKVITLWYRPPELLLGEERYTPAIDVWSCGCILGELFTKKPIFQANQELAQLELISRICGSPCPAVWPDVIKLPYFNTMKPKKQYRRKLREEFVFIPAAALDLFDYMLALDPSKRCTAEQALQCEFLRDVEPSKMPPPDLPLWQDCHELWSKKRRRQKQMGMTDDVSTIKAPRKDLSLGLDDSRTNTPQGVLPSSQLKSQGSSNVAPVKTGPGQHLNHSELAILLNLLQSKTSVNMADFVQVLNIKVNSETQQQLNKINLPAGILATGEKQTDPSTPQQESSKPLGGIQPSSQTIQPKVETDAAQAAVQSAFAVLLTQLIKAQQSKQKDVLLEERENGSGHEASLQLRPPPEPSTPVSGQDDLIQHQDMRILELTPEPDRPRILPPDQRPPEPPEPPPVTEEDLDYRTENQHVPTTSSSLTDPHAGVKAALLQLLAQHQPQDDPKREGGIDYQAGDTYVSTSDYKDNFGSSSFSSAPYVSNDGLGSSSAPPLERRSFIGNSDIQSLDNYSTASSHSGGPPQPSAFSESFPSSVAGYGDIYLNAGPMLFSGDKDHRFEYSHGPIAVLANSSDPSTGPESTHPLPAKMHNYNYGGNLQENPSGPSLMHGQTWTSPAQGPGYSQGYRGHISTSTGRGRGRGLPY

[16] = target: CSNK1D [CK1δ] (Homo sapiens, UniProt P48730); test: KINOMEscan kinase binding; details: 10 μM; % of kinase remaining bound to bead-bound ligand
Chain of CSNK1D [CK1δ] (P48730 whole entry): as the sequence (P48730 whole entry) above

[17] = target: CSNK1A1L (Homo sapiens, UniProt Q8N752); test: KINOMEscan kinase binding; details: 10 μM; % of kinase remaining bound to bead-bound ligand
Chain of CSNK1A1L (Q8N752 whole entry): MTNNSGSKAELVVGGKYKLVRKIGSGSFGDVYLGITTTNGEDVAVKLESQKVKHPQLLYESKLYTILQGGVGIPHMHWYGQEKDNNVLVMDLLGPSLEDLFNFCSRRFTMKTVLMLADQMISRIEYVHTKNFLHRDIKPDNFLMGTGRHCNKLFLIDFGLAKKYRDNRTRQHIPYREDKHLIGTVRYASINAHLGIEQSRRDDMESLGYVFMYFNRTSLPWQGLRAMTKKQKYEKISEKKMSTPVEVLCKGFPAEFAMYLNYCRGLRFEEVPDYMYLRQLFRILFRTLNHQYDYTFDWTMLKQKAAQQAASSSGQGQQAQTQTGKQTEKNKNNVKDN

[18] = target: BMP2K (Homo sapiens, UniProt Q9NSY1); test: KINOMEscan kinase binding; details: 10 μM; % of kinase remaining bound to bead-bound ligand
Chain of BMP2K (Q9NSY1 whole entry): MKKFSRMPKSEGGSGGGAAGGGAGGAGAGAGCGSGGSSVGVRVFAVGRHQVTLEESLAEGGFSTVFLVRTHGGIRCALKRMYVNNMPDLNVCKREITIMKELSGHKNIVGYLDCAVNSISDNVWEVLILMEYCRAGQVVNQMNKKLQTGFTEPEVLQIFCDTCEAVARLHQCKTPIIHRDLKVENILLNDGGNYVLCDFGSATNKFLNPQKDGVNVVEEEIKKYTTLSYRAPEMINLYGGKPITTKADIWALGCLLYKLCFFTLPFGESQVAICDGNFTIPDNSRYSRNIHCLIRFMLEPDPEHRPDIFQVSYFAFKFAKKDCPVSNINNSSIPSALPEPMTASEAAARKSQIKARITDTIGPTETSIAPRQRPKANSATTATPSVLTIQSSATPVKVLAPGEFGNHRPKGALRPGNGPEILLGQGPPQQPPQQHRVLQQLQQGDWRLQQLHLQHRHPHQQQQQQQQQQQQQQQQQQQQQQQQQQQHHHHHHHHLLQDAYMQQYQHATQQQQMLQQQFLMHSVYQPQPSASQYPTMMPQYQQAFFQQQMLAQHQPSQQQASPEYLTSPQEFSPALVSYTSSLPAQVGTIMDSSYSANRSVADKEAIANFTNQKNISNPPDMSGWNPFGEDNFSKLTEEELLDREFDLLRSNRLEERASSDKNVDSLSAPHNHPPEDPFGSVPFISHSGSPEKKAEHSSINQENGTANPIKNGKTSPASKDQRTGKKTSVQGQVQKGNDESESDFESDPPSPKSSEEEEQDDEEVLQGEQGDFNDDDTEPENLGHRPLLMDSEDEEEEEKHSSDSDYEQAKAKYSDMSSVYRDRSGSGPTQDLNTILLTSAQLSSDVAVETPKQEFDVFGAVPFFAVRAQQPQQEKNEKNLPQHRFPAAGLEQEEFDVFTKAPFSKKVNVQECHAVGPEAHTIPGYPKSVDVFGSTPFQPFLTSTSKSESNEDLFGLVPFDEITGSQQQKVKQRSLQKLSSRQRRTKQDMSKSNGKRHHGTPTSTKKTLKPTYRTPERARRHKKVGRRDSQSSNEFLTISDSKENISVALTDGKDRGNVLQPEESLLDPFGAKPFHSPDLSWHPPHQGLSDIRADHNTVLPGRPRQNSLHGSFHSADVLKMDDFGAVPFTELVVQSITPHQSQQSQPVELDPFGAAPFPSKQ

[19] = target: T2, FLT3 (Homo sapiens, UniProt P36888); test: KINOMEscan kinase binding; details: 10 μM; % of kinase remaining bound to bead-bound ligand
T2 sequence (P36888 27-993): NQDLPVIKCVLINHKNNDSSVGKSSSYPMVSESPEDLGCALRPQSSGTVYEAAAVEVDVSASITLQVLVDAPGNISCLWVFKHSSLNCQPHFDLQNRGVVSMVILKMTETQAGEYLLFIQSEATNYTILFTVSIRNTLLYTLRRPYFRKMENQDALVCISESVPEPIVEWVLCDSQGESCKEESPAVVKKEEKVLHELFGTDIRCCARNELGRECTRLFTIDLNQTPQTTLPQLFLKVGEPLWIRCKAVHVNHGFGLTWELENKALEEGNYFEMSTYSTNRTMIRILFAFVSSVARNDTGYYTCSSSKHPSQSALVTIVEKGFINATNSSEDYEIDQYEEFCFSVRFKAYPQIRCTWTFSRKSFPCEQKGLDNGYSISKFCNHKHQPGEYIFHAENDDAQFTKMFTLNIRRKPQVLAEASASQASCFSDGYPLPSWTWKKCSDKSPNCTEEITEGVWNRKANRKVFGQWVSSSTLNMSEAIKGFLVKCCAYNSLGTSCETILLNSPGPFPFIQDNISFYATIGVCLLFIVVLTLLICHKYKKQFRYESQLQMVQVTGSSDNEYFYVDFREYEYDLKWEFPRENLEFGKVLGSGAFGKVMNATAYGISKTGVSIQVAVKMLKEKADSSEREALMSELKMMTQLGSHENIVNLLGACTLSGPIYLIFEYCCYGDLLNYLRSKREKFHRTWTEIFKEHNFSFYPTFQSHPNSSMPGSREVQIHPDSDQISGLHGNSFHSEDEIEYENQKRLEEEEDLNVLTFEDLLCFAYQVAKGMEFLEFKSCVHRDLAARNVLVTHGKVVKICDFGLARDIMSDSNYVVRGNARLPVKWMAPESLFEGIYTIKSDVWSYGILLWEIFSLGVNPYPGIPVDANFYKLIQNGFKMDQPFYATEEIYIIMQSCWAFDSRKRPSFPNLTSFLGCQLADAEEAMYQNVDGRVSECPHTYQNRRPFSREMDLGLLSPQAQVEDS

[20] = target: NLK (Homo sapiens, UniProt Q9UBE8); test: KINOMEscan kinase binding; details: 10 μM; % of kinase remaining bound to bead-bound ligand
[21] = target: T2, FLT3; test: Off-target kinase inhibition, Reaction Biology Corporation; assay type: biochemical; details: read-out: IC50 for inhibition of off-target kinase FLT3; data obtained by Reaction Biology Corporation
[22] = target: PRKCQ (Homo sapiens, UniProt Q04759); test: KINOMEscan kinase binding; details: 10 μM; % of kinase remaining bound to bead-bound ligand
Chain of PRKCQ (Q04759 whole entry): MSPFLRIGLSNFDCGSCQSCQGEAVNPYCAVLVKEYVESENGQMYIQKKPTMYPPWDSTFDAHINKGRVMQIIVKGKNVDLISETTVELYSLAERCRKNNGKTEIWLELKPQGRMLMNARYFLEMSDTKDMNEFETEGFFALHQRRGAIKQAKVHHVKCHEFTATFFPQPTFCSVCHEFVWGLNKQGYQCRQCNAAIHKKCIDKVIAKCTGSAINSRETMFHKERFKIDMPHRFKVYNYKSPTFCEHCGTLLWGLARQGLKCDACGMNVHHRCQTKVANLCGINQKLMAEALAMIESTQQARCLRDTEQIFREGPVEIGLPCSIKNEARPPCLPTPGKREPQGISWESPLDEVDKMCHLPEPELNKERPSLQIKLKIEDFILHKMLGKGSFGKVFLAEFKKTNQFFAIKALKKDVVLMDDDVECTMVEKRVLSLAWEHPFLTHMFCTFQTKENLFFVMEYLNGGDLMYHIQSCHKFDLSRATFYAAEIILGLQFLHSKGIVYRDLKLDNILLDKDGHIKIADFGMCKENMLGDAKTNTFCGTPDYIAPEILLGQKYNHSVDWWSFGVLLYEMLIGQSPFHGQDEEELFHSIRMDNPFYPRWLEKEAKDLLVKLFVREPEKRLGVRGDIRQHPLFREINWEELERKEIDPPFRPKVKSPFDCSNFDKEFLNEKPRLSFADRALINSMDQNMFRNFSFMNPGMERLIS

[23] = target: T1, CK1δ; test: Kinetic analysis; assay type: biochemical; details: ATP competitive
[24] = tested on: human melanoma A375 cell line; test: MTT assay against A375 melanoma cells; assay type: cell-based; details: read-out: MTT assay A375 EC50; human A375 melanoma cell line
[25] = target: CDK4/cyclin D3 (Homo sapiens, UniProt P11802); test: KINOMEscan kinase binding; details: 10 μM; % of kinase remaining bound to bead-bound ligand
[26] = target: MARK2 (Homo sapiens, UniProt Q7KZI7); test: KINOMEscan kinase binding; details: 10 μM; % of kinase remaining bound to bead-bound ligand
[27] = Solubility in PBS buffer; assay type: physicochemical
[28] = tested on: FLT3 (N841L); test: KINOMEscan kinase binding; details: 10 μM; % of kinase remaining bound to bead-bound ligand
[29] = Mouse PK studies; assay type: in vivo; details: IV dosing, 1 mg/kg, 10/10/80 DMSO/Tween/water
[30] = target: LATS2 (Homo sapiens, UniProt Q9NRM7); test: KINOMEscan kinase binding; details: 10 μM; % of kinase remaining bound to bead-bound ligand
[31] = target: CSNK1A1 (Homo sapiens, UniProt P48729); test: KINOMEscan kinase binding; details: 10 μM; % of kinase remaining bound to bead-bound ligand
Chain of CSNK1A1 (P48729 whole entry): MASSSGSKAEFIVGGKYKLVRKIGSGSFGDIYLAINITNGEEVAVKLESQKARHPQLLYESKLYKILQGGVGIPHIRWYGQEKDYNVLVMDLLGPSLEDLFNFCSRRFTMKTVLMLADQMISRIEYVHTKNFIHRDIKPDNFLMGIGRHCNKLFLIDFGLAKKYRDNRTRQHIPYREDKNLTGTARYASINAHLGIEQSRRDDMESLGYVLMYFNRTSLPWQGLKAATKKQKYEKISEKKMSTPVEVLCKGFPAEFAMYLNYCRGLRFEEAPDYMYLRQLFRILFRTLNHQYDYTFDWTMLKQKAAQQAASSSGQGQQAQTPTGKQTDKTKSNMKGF

[32] = target: MELK (Homo sapiens, UniProt Q14680); test: KINOMEscan kinase binding; details: 10 μM; % of kinase remaining bound to bead-bound ligand
[33] = target: TAOK3 (Homo sapiens, UniProt Q9H2K8); test: KINOMEscan kinase binding; details: 10 μM; % of kinase remaining bound to bead-bound ligand
[34] = tested on: 442 kinases; test: DiscoverRX KINOMEscan analysis of 442 kinases; assay type: binding; details: 10 μM, KINOMEscan of 442 kinases
[35] = target: FLT3 (K663Q) (Homo sapiens, UniProt P36888, K663Q); test: KINOMEscan kinase binding; details: 10 μM; % of kinase remaining bound to bead-bound ligand

Compound | % control activity, CDK7 [4] | % control activity, RIOK3 [5] | % control activity, CDK4/cyclin D1 [9] | % control activity, FLT3 (ITD) [14] | % control activity, CDK13 [15] | % control activity, CSNK1A1L [17] | % control activity, BMP2K [18] | % control activity, FLT3 [19] | pIC50 [21] | % control activity, PRKCQ [22] | pEC50 [24] | % control activity, CDK4/cyclin D3 [25] | % control activity, MARK2 [26] | AUC [29] | Cl [29] | Cmax [29] | T1/2 [29] | % control activity, LATS2 [30] | % control activity, CSNK1A1 [31] | further results
O=[N+]([O-])c1cccc2[nH]c(CNc3nc(N4CCOCC4)nc4c3ncn4-c3ccsc3)nc12 [SR-1277] | 72% | 9.6% | 56% | 3.7% | 1% | 9.6% | 6.2% | 3.4% | 6.52 | 100% | 7.66 | 56% | 100% | 1.26 µM·h | 2.8 mL/min/kg | 1.2 µM | 85.2 min | 100% | 63% | % control activity, FLT3 (D835H) [1]: 7.3%; pIC50 [2]: 7.31; Microsome stability T1/2 (mouse) [3]: 2 min; Microsome stability T1/2 (human) [6]: 7 min; Microsome stability T1/2 (rat) [7]: 5 min; % control activity, MAST1 [8]: 100%; % control activity, CSNK1E [CK1ε] [10]: 0.5%; Solubility [11]: 1 µM (≈ 0.478 µg/mL); % control activity, FLT3 (D835Y) [12]: 11%; % control activity, ROCK2 [13]: 100%; % control activity, CSNK1D [CK1δ] [16]: 4.2%; % control activity, NLK [20]: 38%; pKi [23]: 7.16; Solubility [27]: 1 µM (≈ 0.478 µg/mL); % control activity, FLT3 (N841L) [28]: 11%
Fc1cccc(-n2cnc3c(NCc4nc5c(F)c(F)ccc5[nH]4)nc(N4CCOCC4)nc32)c1 [SR-3029] | 38% | 100% | 4.4% | 19% | 100% | 22% | 39% | 3.7% | 5.52 | 88% | 7.07 | 19% | 7.3% | 6.35 µM·h | 5.5 mL/min/kg | 7.3 µM | 54 min | 26% | 22% | % control activity, MELK [32]: 22%; % control activity, TAOK3 [33]: 34%; Number of off-target kinases inhibited ≥90% [34]: 6; % control activity, FLT3 (K663Q) [35]: 12%
